# Legend:
# [1] = tested on: SLE patients; test: British Isles Lupus Assessment Group (BILAG) score in NAC pilot study; assay type: in vivo, human; details: for BILAG: all patients treated with NAC, baseline 26.2
# Experimental: The BILAG index is more comprehensive than the SLEDAI, recording clinical disease activity in 8 different organ systems for a total of 101 items. Each item is measured qualitatively by clinical observation (yes/no, improving/same/worse/new) or quantitatively by measuring hematologic and renal lab values. […] Normally, a total score is not calculated. However, it can be converted into a disease activity scale by assigning points to the alphabetical score: A=9, B=3, C=1, D=0, E=0, with a maximum potential score of 72. (Lam, G. K. W. and Petri, M., “Assessment of systemic lupus erthematosus,” Clin. Exp. Rheumatol., 23 (Supp. 39): S120-S132 (2005)). The classical BILAG index was subsequently updated as the BILAG 2004 index. […] Development and initial validation of an updated version of the British Isles Lupus Assessment Group's disease activity index for patients with systemic lupus erythematosus,” Rheumatology, 44: 902-906 (2005). According to the BILAG 2004 index, all features must be attributable to SLE and refer to the last 4 weeks compared with the previous 4 weeks; in some manifestations, it may be difficult to differentiate SLE from other causes as there may not be any specific test and the decision would then lies with the physician's judgement on the balance of probabilities. The term “improvement” is defined as (a) the amount that is sufficient for consideration of reduction in therapy; and (b) that which is present ≧2 weeks of the previous 4 weeks. Scoring for features is indicated as: (0) not present; (1) Improving; (2) Same; (3) Worse; (4) New.
# A complete physical examination of the cardiovascular, respiratory, gastrointestinal, musculoskeletal, neurological systems, skin, head, neck, sinuses, nasal and oral cavities were performed at each visit. SLE disease activity was assessed by using the British Isles Lupus Assessment Group (BILAG) (Isenberg, D. A. et al., “BILAG 2004. Development and initial validation of an updated version of the British Isles Lupus Assessment Group's disease activity index for patients with systemic lupus erythematosus,” Rheumatology 44(7): 902-906 (2005)) and SLE Disease Activity Index (SLEDAI) (Bombardier, C. et al., “Derivation of the SLEDAI. A disease activity index for lupus patients,” Arth. Rheum., 35: 630-640 (1992)). The concurrent use and dosage of prednisone and other medications were documented.
# Lupus disease activity was measured by SLEDAI and BILAG and fatigue was evaluated by FAC at baseline (visit 1) as well as monthly during a 3-month intervention (visits 2-4) and after a 1-month washout period (visit 5).
# Overall clinical effectiveness of NAC relative to placebo was analyzed with multilevel modeling as implemented in the STATA routine XTMIXED (from StataCorp, College Station, Tex.), with the three nested levels being drug group, subject within drug group and study visit within subject. All models included fixed effects for drug group, study visit and the drug group by study visit interaction along with random intercepts at each design level. […] The reduction in lupus disease activity SLEDAI scores was greater for the NAC than placebo group, as indicated by a significant visit by drug interaction (z=−2.14, p=0.033). The reduction in BILAG scores was also greater for NAC than placebo group. The overall effect was statistically significant as indicated by a significant visit by drug interaction (z=−2.62, p=0.009). Two tailed paired t-test was used to assess the effects of placebo and of each and all NAC doses on clinical indices and biomarkers recorded on visits 2-5 relative to visit 1; p<0.05 was considered significant. Patients and controls were compared with two-tailed unpaired t-test.
# [2] = tested on: DN T cells; test: Spontaneous and CD3/CD28-induced apoptosis of T cells (annexin V/PrI flow cytometry); assay type: in vivo, human; details: NAC-treated patients; for CD3/CD28-induced apoptosis: baseline 16.0±1.6%
# Source text: Cell viability was monitored with annexin V conjugated to fluorescein isothiocyanate (annexin V-FITC conjugate), annexin V conjugated to phycoerythrin (annexin V-PE conjugate), or annexin V conjugated to fluorochrome Cy5 (Annexin V-Cy5 conjugate) matched with emission spectra of propidium iodide (PrI) to detect Annexin V+/PrI− apoptotic cells. Mitochondrial transmembrane potential (ΔΨm) was monitored with mitochondrial potentiometric dyes such as 3,3′-dihexyloxacarbocyanine iodide ((DiOC6), using an excitation wavelength of […] and emission at 488 nm, recorded at 525 nm in the FL-1 (green fluorescence) channel); and tetramethylrhodamine, methyl ester ((TMRM), using an excitation wavelength of […], and emission at 543 nm, recorded at 567 nm in the FL-2 (yellow/orange fluorescence) channel), potential-insensitive mitochondrial dyes such as MitoTracker Green-FM (MTG, 100 nM; excitation: 490 nm, emission: 516 nm recorded in FL-1) or nonyl acridine orange (NAO, 50 nM; excitation: 490 nm, emission: 540 nm recorded in FL-1), superoxide sensing hydroethidine (HE, 1 μM) and H2O2-sensing dichlorofluorescein diacetate (DCF-DA, 1 μM), nitric oxide sensor 4-amino-5-methylamino-2′,7′-difluoroflourescein diacetate (DAF-FM, 1 μM, excitation: 495, emission: 515 nm recorded in FL-1), or cytosolic probes (Fluo-3, 1 μM, excitation: 506 nm, emission: 526 nm recorded in FL-1) and mitochondrial Ca^2+-sensitive fluorescent probes (Rhod-2, 1 μM), respectively.
# NO production (FIG. 3D: DAF-FM fluorescence), and mitochondrial mass were measured in T cell subsets following CD3/CD28 stimulation for 16 h (FIG. 3E: NAO fluorescence). FIG. 3F: Spontaneous apoptosis rate was enumerated by the percentage of Ann V+/PrI− T cells after culture for 16 h. FIG. 3G: Activation-induced apoptosis was assessed following CD3/CD28 co-stimulation for 16 h. Visits: visit 1, before 1st NAC dose; visit 2, after 1-month treatment; visit 3, after 2-month treatment; visit 4, after 3-month treatment; visit 5, after 1-month washout.
# Unstimulated cells and cells stimulated with CD3/CD28 for 16 h were examined and cell death pathway selection in T cells was measured by concurrent staining with annexin V-Alexa 647 and propidium iodide (PrI) as well as cell type-specific antigens. T-cell subsets were analyzed by staining with antibodies to CD4, CD8, and CD25. B cells were identified by CD 19 staining
compound,measurement,setting,value
"CC(=O)N[C@@H](CS)C(=O)O [NAC, N-acetyl-L-cysteine]","effect on SLE disease activity, BILAG",[1]; NAC dose 1 (1.2 g/day),did not influence
same,effect on BILAG,"[1]; NAC dose 2 (2.4 g/day) and dose 3 (4.8 g/day), after 1 month (p=0.029) and 3 months (p=0.0009)",reduced
same,effect on BILAG (mixed model analysis),"[1]; NAC dosing group 3 (4.8 g/day), XTMIXED z=−2.19, p=0.029",significant reduction
same,reduction in BILAG relative to placebo (mixed model analysis),"[1]; NAC groups, visit by drug interaction, XTMIXED z=−2.62, p=0.009",greater
same,swollen joint count (BILAG component),"[1]; after 3-month NAC treatment with dose 3, XTMIXED z=−2.0, p=0.046",reduced
same,swollen joint count (BILAG component),"[1]; after 3-month NAC treatment, all doses combined, XTMIXED z=−2.2, p=0.028",reduced
same,BILAG,"[1]; after 1 month (visit 2), p=0.0158",22.3
same,BILAG,"[1]; after 2 months (visit 3), p=0.0223",22.2
same,CD3/CD28-induced apoptosis,"[2]; after 2 months, p=0.0006",25.4±2.6%
same,CD3/CD28-induced apoptosis,"[2]; after 3 months, p=0.0004",23.5±2.1%
same,Spontaneous apoptosis rate of DN T cells,"[2]; after 4 months, baseline 10.1±1.3%, p=0.035",15.2±2.3%
same,CD3/CD28-induced apoptosis,"[2]; after 4 months, p=0.0313",22.7±2.6%
